Experiment: Osmolarity of the contrast agent composition
Type: physicochemical
Conditions: comparator, hyperosmolar
Source text: For comparison, Dotarem® (gadoteric acid, GUERBET, FRANCE) is hyperosmolar at 1574 mosm, which can cause side effects in humans related to the hypertonicity of a hyperosmolar product creating an intense call of water from the interstitial and cellular spaces to the plasma, responsible for pain or heat. A pain threshold of 600 mOsm/kg has been set.

Osmolarity: 1574 mosm
Compound: O=C([O-])CN1CCN(CC(=O)[O-])CCN(CC(=O)O)CCN(CC(=O)[O-])CC1.[Gd+3] [Dotarem®, gadoteric acid]
